Experimental data as given in PMC10046901, “Molecular Analysis of the Superior Efficacy of a Dual Epidermal Growth Factor Receptor (EGFR)-DNA-Targeting Combi-Molecule in Comparison with Its Putative Prodrugs 6-Mono-Alkylamino- and 6,6-Dialkylaminoquinazoline in a Human Osteosarcoma Xenograft Model” (Cells, 2023).

Tested on: Saos-2 osteosarcoma xenograft
Assay: 18F-FDG PET/CT imaging of tumors
Type: in vivo, NSG male mice
Conditions: day 22, 80 mg/kg oral; for total lesion glycolysis (TLG): FDG-PET
Experimental: All PET/CT experiments were performed using nanoScan PET/CT for small animals (Mediso Medical Imaging Systems, Budapest, Hungary). The radiotracer 2′-deoxy-2′-[^18F]fluoro-D-glucose (^18F-FDG) was inoculated via 1 bolus injection in the tail vein (5.3 MBq in 100 µL). All animals were starved from the night before the experiment. The mice were kept awake for 45 min before the scans and weighed, and glycemia was measured in blood drawn from the caudal artery. Afterward, each mouse was placed in the scanner, with the […] at the center of the field of view. Each PET/CT session consisted of a 30 min PET emission scan followed by a 10 min CT transmission scan. The PET/CT scans were conducted under anesthesia (isoflurane 2%; medical air (0.6 L/min)) delivered via a nose cone. Temperature and heart rate were monitored throughout the procedure using the Mediso system. Images were reconstructed using expectation maximization (EM) and ordered subset expectation maximization (OSEM), normalized, and corrected for scatter, dead time and decay. The CT volume-of-interest (VOI) was drawn manually on the CT and PET co-registered images. ^18F-FDG accumulation was quantified as the mean standardized uptake value (SUV) between 20 and 30 min post-injection in a 3D volume-of-interest (VOI), which was named the metabolic volume (MV), delineated semi-automatically with iso-contours at a 40% threshold of the maximal SUV [30] in the tumor on PET/CT fusion slices using the PMOD software package v3.6 (PMOD Technologies Ltd., Zürich, Switzerland). In addition, another tumor volume-based parameter, called total lesion glycolysis (TLG), was calculated according to the product between the MV and the mean SUV. Furthermore, at the end of the imaging sessions, the tumors were resected and processed for ex vivo analysis.

Structure (SMILES) | CT tumor volume vs vehicle | metabolic volume (MV) vs vehicle, FDG-PET | total lesion glycolysis (TLG)
ClCCNc1ccc2ncnc(Nc3cccc(Br)c3)c2c1 [ZR2002] | significant reduction | significant reduction | reduction in TLG
CN(CCCl)c1ccc2ncnc(Nc3cccc(Br)c3)c2c1 [JS84] | not statistically different | not statistically different | reduction in TLG
